Assay [1] concerns Influenza A/TW/70066/09 (H1N1). The assay can be described thus: microbe, parasite or virus in culture. The assay is classed as cell-based. The conditions noted are these: H1N1, read-out: EC50 on the inhibition of replication (viral plaque reduction assay).
Assay [2] concerns Influenza A/TW/70058/09 (H1N1). The assay can be described thus: microbe, parasite or virus in culture. The assay is classed as cell-based. Particulars: H1N1, read-out: EC50 on the inhibition of replication (viral plaque reduction assay).

SMILES strings stand for the structures.

As to `Nc1c(S(=O)(=O)O)cc(Nc2cccc(S(=O)(=O)CCOS(=O)(=O)O)c2)c2c1C(=O)c1ccccc1C2=O` [RB19, remazol brilliant blue R], the figures for the EC50 in assay [1] and in assay [2] were 11.9 µM and 9.8 µM, respectively.
